We go through two compounds from patent US20200113882A1, “Use of 4-Aminopyridine to Improve Neuro-Cognitive and/or Neuro-Psychiatric Impairment in Patients with Demyelinating and Other Nervous System Conditions” (priority 2009, published 2020).

The subject of series [1] is cognitive function in MS patients. Conditions: prior study; cited from earlier work.
Series [2] deals with normal adult myelinated axons. Conditions: cited from earlier work.
The nature of series [3]: rat pharmacokinetics after i.v. and p.o. 2 mg/kg (M 2001-03). The settings on record: rats, single p.o. 2 mg/kg.
Series [4] can be described thus: single- and repeated-dose toxicity studies in animals. Type of series: in vivo. Here is the method:
In single- and repeated-dose toxicity studies, the dosing regimen greatly affected the rate of mortality and incidence of clinical signs in all species studied (with the possible exception of the mouse). In general, higher mortality rates and greater incidences of adverse clinical signs were noted when 4-aminopyridine was administered in a single large dose as compared to when the same total dose was given as two, three, or four equally divided sub-doses. Toxic responses to orally administered 4-aminopyridine were rapid in onset, most often occurring within the first 2 hours post-dose.
These clinical signs were not unexpected and represent exaggerated pharmacology of 4-aminopyridine.

Series [5] in a line: adverse events in clinical studies. Type of series: in vivo, human. Conditions: controlled clinical studies. From the text:
In controlled clinical studies involving the use of fampridine, the most frequent adverse events by body system occurred in the nervous system, “body as a whole”, and digestive system.
While an increased incidence of such events appears to be moderately dose-related, the susceptibility of individuals is quite variable. The potential for lowering seizure threshold in people with MS appears to be more significant than for people with spinal cord injury, which may result from interaction of the channel-blocking properties of the drug with MS brain pathology in certain individuals.

Series [6] in a line: 14C-4-aminopyridine single oral dose 1 mg/kg in rats (HWI 6379-101): absorption, tissue distribution. Here is the method:
(§1) Studies were performed in rats and dogs using ^14C-labeled 4-aminopyridine (1 mg/kg) given as a single oral gavage dose in solution.
In a single-dose study, rats were administered ^14C-labeled 4-aminopyridine (1 mg/kg) p.o. Three animals per time point were sacrificed 1, 3, 8, and 24 hours post-dose. Blood was collected and tissues were excised for determination of radioactivity.

The nature of series [7]: 14C-4-aminopyridine single oral dose 1 mg/kg in dogs (HWI 6379-102): absorption. Type of series: in vivo, dog. The settings on record: equal mg/kg doses, 1 mg/kg oral. Here is the method:
as §1

The mark [8] stands for this setting: rats, 1 mg/kg p.o., one hour post-dose.

Turning to `Nc1ccncc1` [4-aminopyridine], the “benefit of cognitive function” value in series [1] is “did not show benefit”. In addition, the “concentrations that tend to cause gradual depolarization of the axon resting potential” value in series [2] ((94.1 μg/mL)) is recorded as “above 1 mM”. In series [2] (normal adult myelinated axons (9.4 μg/mL)), the “concentrations at which action potential shows little or no sensitivity” value is “below 100 μM”. Further, in series [3], the “Vdss difference between males and females adjusted for body weight” value was 2%. For the same compound, the clinical signs entry in series [4] (after large single doses or repeated lower doses, all species studied) is “tremors, convulsions, ataxia, dyspnea, dilated pupils, prostration, abnormal vocalization, increased respiration, excess salivation, gait abnormalities, and hyper- and hypo-excitability”. In addition, the “onset of toxic responses post-dose” value in series [4] (orally administered, most often) was no more than 2 h. Besides, in series [5], the “most common nervous system adverse events” value was “Dizziness, insomnia, paresthesia, pain, headache and asthenia”; the “most frequently reported digestive system adverse event” value was “nausea”.

Regarding `Nc1ccncc1` [14C-4-Aminopyridine], the “time to peak plasma levels” value in series [6] (both, rat, in vivo, po, 1 mg/kg) was 0.5 to 1 h. For the same compound, the “radioactive dose in carcass” value in series [6] (rats, 1 mg/kg p.o., 3 hours post-dose) came to 15.4%. In addition, in series [6] (setting [8]), the “dose accounted for in total (radioactivity)” value is 58.3%; the “radioactivity in blood, percent of dose” value stood at 0.7%; the radioactivity in carcass was 51%; the “radioactivity in kidney, percent of dose” value came to 1.6%. For the same compound, the “radioactivity in liver, percent of dose” value in series [6] (setting [8]) amounted to 2.6%. In series [7], the “Cmax and AUC in the dog relative to the rat” value is “approximately four-fold higher”.
